Consider one compound from patent US5208243A, “5-isoquinolinesulfonamides” (Adir et Compagnie, priority 1991, dated 1993).

The subject of test [1] is rabbit aorta. As to the kind of experiment: Contraction of rabbit aorta induced by phorbol ester in a normal physiological medium. The arrangement: species or system New Zealand rabbit. Conditions: Oryctolagus cuniculus, TPA 10^-5 M, read-out: IC50, phorbol ester stimulus. How it is done: (§1) Studies are carried out on rings, 3 mm in length, […] The vascular rings are immersed in a normal physiological solution or in a physiological solution lacking calcium (+0.2 mM of the chelating agent EGTA), which is thermostatically regulated at 37° C. and aerated with a 95% O2 +5% CO2 mixture. The rings are linked to a STATHAM tension sensor (UC2-GOULD). The optimal tension for each vessel is applied and a stabilization period of 90 min is observed for the preparations. a) Antivasoconstrictive activity of the compounds of the invention in a physiological medium.

The test system of test [2] is rat aortas. As to the kind of experiment: Contraction of rat aortas induced by potassium depolarization (hyperpotassium medium). The arrangement: species or system WISTAR rat. Conditions: read-out: IC50 (concentration inhibiting by 50% the contraction of rat aortas induced by potassium depolarization). The text has this:
The rings are linked to a STATHAM tension sensor (UC2-GOULD).

Test [3] has as its system Rabbit iliac artery. The test is described as follows: Contraction of rabbit iliac artery induced by caffeine in a medium without calcium. Also on record: species or system New Zealand rabbit. Conditions: Oryctolagus cuniculus, 10^-5 M, medium lacking calcium. How it is done: (§2) Studies are carried out on rings, 3 mm in length, […] The vascular rings are immersed in a normal physiological solution or in a physiological solution lacking calcium (+0.2 mM of the chelating agent EGTA), which is thermostatically regulated at 37° C. and aerated with a 95% O2 +5% CO2 mixture. The rings are linked to a STATHAM tension sensor (UC2-GOULD). The optimal tension for each vessel is applied and a stabilization period of 90 min is observed for the preparations. b) Antivasoconstrictive activity of the compounds of the invention in a medium without calcium.

Test [4] deals with rabbit mesenteric artery. The test is described as follows: Contraction of rabbit mesenteric artery induced by electrical stimulation. The arrangement: species or system New Zealand rabbit. Conditions: Oryctolagus cuniculus, normal physiological medium. How it is done: as §1
Test [5] deals with rabbit aorta. The test is described as follows: Contraction of rabbit aorta induced by noradrenaline in a normal physiological medium. Also on record: species or system New Zealand rabbit. Conditions: Oryctolagus cuniculus, noradrenaline 10^-6 M, read-out: IC50, noradrenaline stimulus. The method, then: as §1
Test [6] concerns rabbit aorta. As to the kind of experiment: Contraction of rabbit aorta induced by endothelin in a normal physiological medium. Also on record: species or system New Zealand rabbit. Conditions: Oryctolagus cuniculus, read-out: IC50, endothelin stimulus. How it is done: as §1
Test [7] concerns rabbit aorta. As to the kind of experiment: Contraction of rabbit aorta induced by phorbol ester in a medium without calcium. The arrangement: species or system New Zealand rabbit. Conditions: Oryctolagus cuniculus, 10^-5 M, medium lacking calcium. The method, then:
as §2

Test [8] deals with pressor effects of phenylephrine, angiotensin II and vasopressin. The test is described as follows: Cardiovascular reactivity to vasopressors in wakeful rats, intravenous administration. Format: in vivo, WISTAR rat. Conditions: 10 mg/kg intravenously. The method, then: a) Effects of the compounds of the invention, administered intravenously, on cardiovascular reactivity to various vasopressors.
After a 30 to 60 min period of stabilization of wakeful WISTAR rats, a range of concentrations of phenylephrine (between 0 and 16 μg/kg) is injected intravenously.
Reading of the mean blood pressure and heart rate is carried out at the point where the pressor effect reaches its maximum. After a washing time of at least 2 hours, the test compound is administered intravenously (10 mg/kg) followed 15 minutes later by a new range of phenylephrine.
The same procedure is used to study the compounds of the invention for the pressor effects induced by angiotensin II (0 to 200 ng/kg) and vasopressin (0 to 200 ng/kg). These studies are carried out on different groups of animals.

In test [9] the test system is rabbit aorta. As to the kind of experiment: Vascular contraction of rabbit aorta induced by PDGF. The arrangement: species or system New Zealand rabbit. Conditions: Oryctolagus cuniculus, 10^-5 M, preincubated 15 minutes. How it is done: as §1

`CN(CC1CCN(CCCOc2ccc(F)cc2)CC1)S(=O)(=O)c1cccc2cnccc12.Cl.Cl` [Example 17, N-Methyl-N-{[1-[3-(p-fluorophenoxy)propyl]-4-piperidyl]methyl}-5-isoquinolinesulfonamide dihydrochloride]: the IC50 in test [1] is 21000 nM; in test [2], 1500 nM; in [4] it was 100 nM; in [5], 1500 nM; in test [6] it was 3300 nM. Besides, the inhibition (as a rule, how much of the control response was suppressed) at 10 µM came out at 63% in test [3], 35% in test [7] and 30% in test [9]. In addition, the “reduction of the pressure effect of phenylephrine” value in [8] was found to be 81%.
